Reference: US20250136586A1, “Substituted 7-(Pyrimidin-4-yl)Quinolin-4(1H)-One Compounds as Cyclin Dependent Kinase Inhibitors” (BeiGene, Ltd., priority 2022, published 2025)
pIC50: −log10 of the molar value.

Tests used:
[1] = biological target: CDK6/Cyclin D3 (Homo sapiens (Human), UniProt Q00534); experiment: TR-FRET kinase inhibition assay, CDK6/Cyclin D3; format: biochemical; conditions: 1 mM ATP, 0.15 μM Rb (Ser780)-biotin substrate, read-out: CDK6D3 IC50
Method: (§1) Compounds disclosed herein were tested for inhibition of CDK4/Cyclin D1 or CDK6/Cyclin D3 kinase in an assay based on the time-resolved fluorescence-resonance energy transfer (TR-FRET) methodology. The assay was carried out in 384-well low volume black plates in a reaction mixture containing CDK4/Cyclin D1 or CDK6/Cyclin D3, 1 mM ATP, 0.15 μM Rb (Ser780)-biotin substrate and 0-10 μM compound in buffer containing 50 mM HEPES pH7.0, 0.02% NaN3, 0.01% BSA, 0.1 mM Orthovanadate, 50 mM MgCl2, 1 mM DTT and 0.005% Tween-20. The kinase was incubated with compound for 60 minutes at room temperature and the reaction was initiated by the addition of ATP and Rb (Ser780)-biotin substrate. After reaction at room temperature for 120 minutes, an equal volume of stop/detection solution was added according to the manufacture's instruction (Cisbio Bioassays). The stop/detection solution contained Streptavidin-XL665 and Anti-pRb (Ser780) mAb-Eu Cryptate in Detection buffer (Cisbio Bioassays). Plates were incubated at room temperature for 60 minutes, and the TR-FRET signals (ex337 nm, em665 nm/620 nm) were recorded on a PHERAstar FSX plate reader (BMG Labtech). The inhibition percentage of CDK4/Cyclin D1 or CDK6/Cyclin D3 kinase activity in presence of increasing concentrations of compounds was calculated based on the ratio of fluorescence at 665 nm to that at 620 nm. The IC50 for each compound was derived from fitting the data to the four-parameter logistic equation by Dotmatics.

[2] = biological target: CDK4/Cyclin D1 (Homo sapiens (Human), UniProt P11802); experiment: TR-FRET kinase inhibition assay, CDK4/Cyclin D1; format: biochemical; conditions: 1 mM ATP, 0.15 μM Rb (Ser780)-biotin substrate, read-out: CDK4D1 IC50
Chain of CDK4/Cyclin D1 (P11802 whole entry): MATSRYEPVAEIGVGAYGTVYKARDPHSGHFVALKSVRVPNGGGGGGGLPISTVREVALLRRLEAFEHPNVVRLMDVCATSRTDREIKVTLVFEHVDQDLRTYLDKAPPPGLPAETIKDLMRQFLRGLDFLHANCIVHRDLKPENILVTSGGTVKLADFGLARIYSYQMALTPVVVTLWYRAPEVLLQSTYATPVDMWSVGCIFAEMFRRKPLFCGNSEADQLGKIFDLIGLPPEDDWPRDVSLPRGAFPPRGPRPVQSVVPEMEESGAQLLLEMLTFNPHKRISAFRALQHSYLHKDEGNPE
Chain of CDK4/Cyclin D1 (P24385 whole entry partner): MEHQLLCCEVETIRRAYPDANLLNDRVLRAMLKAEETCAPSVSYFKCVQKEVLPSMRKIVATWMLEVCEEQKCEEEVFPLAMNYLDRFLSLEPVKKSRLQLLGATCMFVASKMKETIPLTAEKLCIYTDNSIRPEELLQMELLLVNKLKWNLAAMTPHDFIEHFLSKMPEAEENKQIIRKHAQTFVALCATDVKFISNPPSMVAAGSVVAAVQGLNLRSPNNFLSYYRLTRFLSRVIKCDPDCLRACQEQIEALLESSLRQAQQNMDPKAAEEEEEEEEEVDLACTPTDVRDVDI
Method: as §1, with “The assay was carried out in 384-well low volume black plates in a reaction mixture containing CDK4/Cyclin D1 or CDK6/Cyclin D3, 1 mM ATP, 0.15 μM Rb (Ser780)-biotin substrate and 0-10 μM compound in buffer containing 50 mM HEPES pH7.0, 0.02% NaN3, 0.01% BSA, 0.1 mM Orthovanadate, 50 mM MgCl2, 1 mM DTT and 0.005% Tween-20.” left out, “Plates were incubated at room temperature for 60 minutes, and the TR-FRET signals (ex337 nm, em665 nm/620 nm) were recorded on a PHERAstar FSX plate reader (BMG Labtech).” left out

Chain of CDK6/Cyclin D3 (Q00534 whole entry): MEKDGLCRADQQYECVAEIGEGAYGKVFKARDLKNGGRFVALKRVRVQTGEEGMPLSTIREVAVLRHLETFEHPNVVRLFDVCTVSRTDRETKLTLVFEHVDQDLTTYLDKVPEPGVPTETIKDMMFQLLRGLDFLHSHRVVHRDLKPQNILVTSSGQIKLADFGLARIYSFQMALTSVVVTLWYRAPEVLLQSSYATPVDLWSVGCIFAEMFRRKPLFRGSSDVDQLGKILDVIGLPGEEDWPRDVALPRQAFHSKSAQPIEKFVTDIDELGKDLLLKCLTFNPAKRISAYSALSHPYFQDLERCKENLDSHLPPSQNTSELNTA
Chain of CDK6/Cyclin D3 (P30281 whole entry partner): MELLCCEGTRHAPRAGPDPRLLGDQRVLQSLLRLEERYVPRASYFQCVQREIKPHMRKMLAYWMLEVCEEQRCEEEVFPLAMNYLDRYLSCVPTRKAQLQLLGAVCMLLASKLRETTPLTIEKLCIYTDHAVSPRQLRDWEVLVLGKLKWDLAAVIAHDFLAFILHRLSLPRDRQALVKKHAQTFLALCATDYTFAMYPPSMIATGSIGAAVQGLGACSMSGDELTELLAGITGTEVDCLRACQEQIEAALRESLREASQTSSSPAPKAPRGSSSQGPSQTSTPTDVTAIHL

pIC50 [1] | pIC50 [2] | SMILES
5.92 | 7.57 | CC(C)n1c(CN2CCO[C@H](C)C2)cc(=O)c2ccc(-c3nc(N[C@@H]4CCOC[C@H]4O)ncc3F)cc21 [Example 18, 7-(5-fluoro-2-(((3S,4R)-3-hydroxytetrahydro-2H-pyran-4-yl)amino)pyrimidin-4-yl)-1-isopropyl-2-(((R)-2-methylmorpholino)methyl)quinolin-4(1H)-one]
6.59 | 7.77 | CC(C)n1c(CN2CCO[C@@H](C)C2)cc(=O)c2ccc(-c3nc(N[C@@H]4CCOC[C@H]4O)ncc3F)cc21 [Example 62, 7-(5-fluoro-2-(((3S,4R)-3-hydroxytetrahydro-2H-pyran-4-yl)amino)pyrimidin-4-yl)-1-isopropyl-2-(((S)-2-methylmorpholino)methyl)quinolin-4(1H)-one]
7.67 | 9.10 | Cc1c(CN2[C@H](C)COC[C@@H]2C)n(C(C)C)c2cc(-c3nc(N[C@@H]4CCOC[C@H]4O)ncc3F)ccc2c1=O [Example 72, 2-(((3R,5S)-3,5-dimethylmorpholino)methyl)-7-(5-fluoro-2-(((3S,4R)-3-hydroxytetrahydro-2H-pyran-4-yl)amino)pyrimidin-4-yl)-1-isopropyl-3-methylquinolin-4(1H)-one]
6.53 | 8.32 | CC(C)n1c(CN2[C@H](C)COC[C@H]2C)cc(=O)c2ccc(-c3nc(N[C@@H]4CCOC[C@H]4O)ncc3F)cc21 [Example 106, 2-(((3R,5R)-3,5-dimethylmorpholino)methyl)-7-(5-fluoro-2-(((3S,4R)-3-hydroxytetrahydro-2H-pyran-4-yl)amino)pyrimidin-4-yl)-1-isopropylquinolin-4(1H)-one]
6.86 | 8.09 | CC(C)n1c(CN2CCOCC2)cc(=O)c2ccc(-c3nc(N[C@@H]4CCOC[C@H]4O)ncc3F)cc21 [Example 25, 7-(5-fluoro-2-(((3S,4R)-3-hydroxytetrahydro-2H-pyran-4-yl)amino)pyrimidin-4-yl)-1-isopropyl-2-(morpholinomethyl)quinolin-4(1H)-one]
6.27 | 7.92 | CC(C)n1c(CN2CCOC[C@H]2C)cc(=O)c2ccc(-c3nc(N[C@@H]4CCOC[C@H]4O)ncc3F)cc21 [Example 82, 7-(5-fluoro-2-(((3S,4R)-3-hydroxytetrahydro-2H-pyran-4-yl)amino)pyrimidin-4-yl)-1-isopropyl-2-(((R)-3-methylmorpholino)methyl)quinolin-4(1H)-one]
6.32 | 7.68 | CC(C)n1c(CN[C@H]2CCOC2)cc(=O)c2ccc(-c3nc(N[C@@H]4CCOC[C@H]4O)ncc3F)cc21 [Example 67, 7-(5-fluoro-2-(((3S,4R)-3-hydroxytetrahydro-2H-pyran-4-yl)amino)pyrimidin-4-yl)-1-isopropyl-2-((((S)-tetrahydrofuran-3-yl)amino)methyl)quinolin-4(1H)-one]
6.32 | 7.92 | CC(C)n1c(CN2C[C@@H](O)[C@H](F)C2)cc(=O)c2ccc(-c3nc(N[C@@H]4CCOC[C@H]4O)ncc3F)cc21 [Example 46, 7-(5-fluoro-2-(((3S,4R)-3-hydroxytetrahydro-2H-pyran-4-yl)amino)pyrimidin-4-yl)-2-(((3R,4R)-3-fluoro-4-hydroxypyrrolidin-1-yl)methyl)-1-isopropylquinolin-4(1H)-one]
5.93 | 7.52 | CC(C)n1c(CN2CC[C@](C)(O)C2)cc(=O)c2ccc(-c3nc(N[C@@H]4CCOC[C@H]4O)ncc3F)cc21 [Example 61, 7-(5-fluoro-2-(((3S,4R)-3-hydroxytetrahydro-2H-pyran-4-yl)amino)pyrimidin-4-yl)-2-(((S)-3-hydroxy-3-methylpyrrolidin-1-yl)methyl)-1-isopropylquinolin-4(1H)-one]
6.46 | 7.82 | CCc1cc(=O)c2ccc(-c3nc(N[C@@H]4CCOC[C@H]4O)ncc3F)cc2n1C(C)C [Example 55, 2-ethyl-7-(5-fluoro-2-(((3S,4R)-3-hydroxytetrahydro-2H-pyran-4-yl)amino)pyrimidin-4-yl)-1-isopropylquinolin-4(1H)-one]

Further lines, the molecule ahead of its results:

SMILES | pIC50 [1] | pIC50 [2]
CC(C)n1c(CN2C3COCC2C3)cc(=O)c2ccc(-c3nc(N[C@@H]4CCOC[C@H]4O)ncc3F)cc21 [Example 68, 2-((3-oxa-6-azabicyclo[3.1.1]heptan-6-yl)methyl)-7-(5-fluoro-2-(((3S,4R)-3-hydroxytetrahydro-2H-pyran-4-yl)amino)pyrimidin-4-yl)-1-isopropylquinolin-4(1H)-one] | 5.91 | 7.47
CC(C)n1c(CN2CCC3(CCCO3)CC2)cc(=O)c2ccc(-c3nc(N[C@@H]4CCOC[C@H]4O)ncc3F)cc21 [Example 44, 2-((1-oxa-8-azaspiro[4.5]decan-8-yl)methyl)-7-(5-fluoro-2-(((3S,4R)-3-hydroxytetrahydro-2H-pyran-4-yl)amino)pyrimidin-4-yl)-1-isopropylquinolin-4(1H)-one] | 5.89 | 7.54
CC(C)n1c(CNc2cccc(Cl)c2)cc(=O)c2ccc(-c3nc(N[C@@H]4CCOC[C@H]4O)ncc3F)cc21 [Example 95, 2-(((3-chlorophenyl)amino)methyl)-7-(5-fluoro-2-(((3S,4R)-3-hydroxytetrahydro-2H-pyran-4-yl)amino)pyrimidin-4-yl)-1-isopropylquinolin-4(1H)-one] | 6.68 | 7.89
Cc1c(CN[C@H]2C[C@H](F)C2)n(C(C)C)c2cc(-c3nc(N[C@@H]4CCOC[C@H]4O)ncc3F)ccc2c1=O [Example 111, 7-(5-fluoro-2-(((3S,4R)-3-hydroxytetrahydro-2H-pyran-4-yl)amino)pyrimidin-4-yl)-2-((((1r,3R)-3-fluorocyclobutyl)amino)methyl)-1-isopropyl-3-methylquinolin-4(1H)-one] | 6.45 | 7.80
CC(C)n1c(CN2CCC[C@H](F)C2)cc(=O)c2ccc(-c3nc(N[C@@H]4CCOC[C@H]4O)ncc3F)cc21 [Example 69, 7-(5-fluoro-2-(((3S,4R)-3-hydroxytetrahydro-2H-pyran-4-yl)amino)pyrimidin-4-yl)-2-(((S)-3-fluoropiperidin-1-yl)methyl)-1-isopropylquinolin-4(1H)-one] | 6.16 | 7.68
Cc1c(CN2CCC[C@H](O)C2)n(C(C)C)c2cc(-c3nc(N[C@@H]4CCOC[C@H]4O)ncc3F)ccc2c1=O [Example 123, 7-(5-fluoro-2-(((3S,4R)-3-hydroxytetrahydro-2H-pyran-4-yl)amino)pyrimidin-4-yl)-2-(((S)-3-hydroxypiperidin-1-yl)methyl)-1-isopropyl-3-methylquinolin-4(1H)-one] | 6.89 | 8.37
CC(C)n1c(C(=O)NCC(C)(C)O)cc(=O)c2ccc(-c3nc(N[C@@H]4CCOC[C@H]4O)ncc3Cl)cc21 [Example 22, 7-(5-chloro-2-(((3S,4R)-3-hydroxytetrahydro-2H-pyran-4-yl)amino)pyrimidin-4-yl)-N-(2-hydroxy-2-methylpropyl)-1-isopropyl-4-oxo-1,4-dihydroquinoline-2-carboxamide] | 6.03 | 7.31
CC(C)n1c(CN[C@H]2C[C@H](F)C2)cc(=O)c2ccc(-c3nc(N[C@@H]4CCOC[C@H]4O)ncc3F)cc21 [Example 63, 7-(5-fluoro-2-(((3S,4R)-3-hydroxytetrahydro-2H-pyran-4-yl)amino)pyrimidin-4-yl)-2-((((1r,3R)-3-fluorocyclobutyl)amino)methyl)-1-isopropylquinolin-4(1H)-one] | 6.32 | 7.66
CC(C)n1c(C(=O)N2CCOCC2)cc(=O)c2ccc(-c3nc(N[C@@H]4CCOC[C@H]4O)ncc3Cl)cc21 [Example 13, 7-(5-chloro-2-(((3S,4R)-3-hydroxytetrahydro-2H-pyran-4-yl)amino)pyrimidin-4-yl)-1-isopropyl-2-(morpholine-4-carbonyl)quinolin-4(1H)-one] | 6.27 | 7.03
CC(C)n1ccc(=O)c2ccc(-c3nc(N[C@@H]4CCOC[C@H]4O)ncc3F)cc21 [Example 3, 7-(5-fluoro-2-(((3S,4R)-3-hydroxytetrahydro-2H-pyran-4-yl)amino)pyrimidin-4-yl)-1-isopropylquinolin-4(1H)-one] | 5.90 | 7.11
